How the values were obtained:
[1] = biological target: 3-phosphoinositide-dependent protein kinase 1 (Homo sapiens) (UniProt O15530); conditions: Compound concentration 100.0 nM
[2] = biological target: Beta-3 adrenergic receptor (Homo sapiens) (UniProt P13945); conditions: Compound concentration 10.0 uM
[3] = biological target: 5-hydroxytryptamine receptor 1B (Homo sapiens) (UniProt P28222); conditions: Compound concentration 10.0 uM
[4] = tested on: Tyrosine-protein kinase ABL1 (Homo sapiens), P00519 [H396P]; conditions: Compound concentration 100.0 nM
[5] = biological target: AP2-associated protein kinase 1 (Homo sapiens) (UniProt Q2M2I8); conditions: Compound concentration 100.0 nM
[6] = tested on: Phosphatidylinositol 4,5-bisphosphate 3-kinase catalytic subunit alpha isoform (Homo sapiens), P42336 [H1047L]; conditions: Compound concentration 100.0 nM
[7] = biological target: Interleukin-1 receptor-associated kinase 3 (Homo sapiens) (UniProt Q9Y616); conditions: Compound concentration 100.0 nM
[8] = biological target: Serine/threonine-protein kinase PAK 2 (Homo sapiens) (UniProt Q13177); conditions: Compound concentration 100.0 nM
[9] = biological target: Beta-1 adrenergic receptor (Homo sapiens) (UniProt P08588); conditions: Compound concentration 10.0 uM
[10] = biological target: LIM domain kinase 1 (Homo sapiens) (UniProt P53667); conditions: Compound concentration 100.0 nM
[11] = biological target: Protein kinase C delta type (Homo sapiens) (UniProt Q05655); conditions: Compound concentration 100.0 nM
[12] = biological target: Serine/threonine-protein kinase Nek9 (Homo sapiens) (UniProt Q8TD19); conditions: Compound concentration 100.0 nM
[13] = biological target: Serine/threonine-protein kinase SIK2 (Homo sapiens) (UniProt Q9H0K1); conditions: Compound concentration 100.0 nM
[14] = biological target: Maternal embryonic leucine zipper kinase (Homo sapiens) (UniProt Q14680); conditions: Compound concentration 100.0 nM
[15] = biological target: Cyclin-dependent kinase-like 1 (Homo sapiens) (UniProt Q00532); conditions: Compound concentration 100.0 nM
[16] = biological target: Histamine H3 receptor (Homo sapiens) (UniProt Q9Y5N1); conditions: Compound concentration 10.0 uM
[17] = biological target: Serine/threonine-protein kinase WNK1 (Homo sapiens) (UniProt Q9H4A3); conditions: Compound concentration 100.0 nM
[18] = biological target: Rho-associated protein kinase 2 (Homo sapiens, UniProt O75116); conditions: Compound concentration 100.0 nM
[19] = biological target: Serine/threonine-protein kinase/endoribonuclease IRE1 (Homo sapiens) (UniProt O75460); conditions: Compound concentration 100.0 nM
[20] = biological target: Serine/threonine-protein kinase tousled-like 1 (Homo sapiens) (UniProt Q9UKI8); conditions: Compound concentration 100.0 nM
[21] = biological target: Phosphatidylinositol 3-kinase C2 domain-containing subunit gamma (Homo sapiens) (UniProt O75747); conditions: Compound concentration 100.0 nM
[22] = biological target: Serine/threonine-protein kinase pim-1 (Homo sapiens) (UniProt P11309); conditions: Compound concentration 100.0 nM
[23] = biological target: Serine/threonine-protein kinase DCLK2 (Homo sapiens) (UniProt Q8N568); conditions: Compound concentration 100.0 nM
[24] = biological target: T1, MAP kinase-activated protein kinase 5 (Homo sapiens) (UniProt Q8IW41); conditions: Compound concentration 100.0 nM
T1 sequence (whole entry): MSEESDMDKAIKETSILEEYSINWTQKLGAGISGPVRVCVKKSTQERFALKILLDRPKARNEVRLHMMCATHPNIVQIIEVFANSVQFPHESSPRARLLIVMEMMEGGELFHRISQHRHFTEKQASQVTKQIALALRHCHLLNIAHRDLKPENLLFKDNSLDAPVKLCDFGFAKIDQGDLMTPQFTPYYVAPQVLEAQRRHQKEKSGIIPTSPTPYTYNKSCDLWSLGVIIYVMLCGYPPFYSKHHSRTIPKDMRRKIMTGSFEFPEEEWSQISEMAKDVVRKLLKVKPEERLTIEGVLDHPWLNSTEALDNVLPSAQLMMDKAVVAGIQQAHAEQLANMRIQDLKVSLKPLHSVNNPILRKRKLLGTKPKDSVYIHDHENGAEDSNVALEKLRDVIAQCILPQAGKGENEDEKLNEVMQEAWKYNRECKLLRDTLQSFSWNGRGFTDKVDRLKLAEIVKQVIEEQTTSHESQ

[25] = biological target: Phosphorylase b kinase regulatory subunit alpha, liver isoform (Homo sapiens) (UniProt P46019); conditions: Compound concentration 100.0 nM
[26] = biological target: Serine/threonine-protein kinase TAO1 (Homo sapiens) (UniProt Q7L7X3); conditions: Compound concentration 100.0 nM
[27] = biological target: Phosphatidylinositol 4-phosphate 5-kinase type-1 alpha (Homo sapiens) (UniProt Q99755); conditions: Compound concentration 100.0 nM
[28] = biological target: Serine/threonine-protein kinase RIO2 (Homo sapiens) (UniProt Q9BVS4); conditions: Compound concentration 100.0 nM
[29] = biological target: T2, Calcium/calmodulin-dependent protein kinase type IV (Homo sapiens) (UniProt Q16566); conditions: Compound concentration 100.0 nM
T2 sequence (whole entry): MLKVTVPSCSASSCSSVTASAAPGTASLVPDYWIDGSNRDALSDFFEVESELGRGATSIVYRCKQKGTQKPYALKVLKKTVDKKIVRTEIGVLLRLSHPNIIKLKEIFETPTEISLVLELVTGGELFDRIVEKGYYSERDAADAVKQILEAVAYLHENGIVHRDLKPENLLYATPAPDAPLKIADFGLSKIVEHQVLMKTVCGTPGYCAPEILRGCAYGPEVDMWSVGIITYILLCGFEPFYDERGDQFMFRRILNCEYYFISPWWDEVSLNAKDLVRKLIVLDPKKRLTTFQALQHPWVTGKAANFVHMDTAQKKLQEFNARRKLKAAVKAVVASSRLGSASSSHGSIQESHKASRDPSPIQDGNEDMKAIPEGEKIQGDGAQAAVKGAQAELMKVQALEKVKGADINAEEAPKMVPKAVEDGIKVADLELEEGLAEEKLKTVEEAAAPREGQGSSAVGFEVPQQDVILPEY

[30] = biological target: Ephrin type-B receptor 2 (Homo sapiens) (UniProt P29323); conditions: Compound concentration 100.0 nM
[31] = tested on: Mast/stem cell growth factor receptor Kit (Homo sapiens), P10721 [D816V]; conditions: Compound concentration 100.0 nM
[32] = biological target: Serine/threonine-protein kinase PLK3 (Homo sapiens) (UniProt Q9H4B4); conditions: Compound concentration 100.0 nM

Chain of Histamine H3 receptor (Homo sapiens) (Q9Y5N1 whole entry): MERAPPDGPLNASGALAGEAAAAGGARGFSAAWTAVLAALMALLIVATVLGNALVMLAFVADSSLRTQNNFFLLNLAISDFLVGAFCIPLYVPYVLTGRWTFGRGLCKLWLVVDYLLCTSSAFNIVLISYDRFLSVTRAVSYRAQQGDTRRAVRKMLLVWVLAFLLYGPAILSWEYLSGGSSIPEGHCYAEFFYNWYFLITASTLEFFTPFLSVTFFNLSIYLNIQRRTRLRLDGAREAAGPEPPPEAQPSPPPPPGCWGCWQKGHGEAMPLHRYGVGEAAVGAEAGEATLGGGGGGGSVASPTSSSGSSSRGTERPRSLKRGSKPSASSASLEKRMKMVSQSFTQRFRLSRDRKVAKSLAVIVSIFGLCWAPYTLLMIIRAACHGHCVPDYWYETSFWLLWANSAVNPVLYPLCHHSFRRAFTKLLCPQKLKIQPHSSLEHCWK
Chain of 5-hydroxytryptamine receptor 1B (Homo sapiens) (P28222 whole entry): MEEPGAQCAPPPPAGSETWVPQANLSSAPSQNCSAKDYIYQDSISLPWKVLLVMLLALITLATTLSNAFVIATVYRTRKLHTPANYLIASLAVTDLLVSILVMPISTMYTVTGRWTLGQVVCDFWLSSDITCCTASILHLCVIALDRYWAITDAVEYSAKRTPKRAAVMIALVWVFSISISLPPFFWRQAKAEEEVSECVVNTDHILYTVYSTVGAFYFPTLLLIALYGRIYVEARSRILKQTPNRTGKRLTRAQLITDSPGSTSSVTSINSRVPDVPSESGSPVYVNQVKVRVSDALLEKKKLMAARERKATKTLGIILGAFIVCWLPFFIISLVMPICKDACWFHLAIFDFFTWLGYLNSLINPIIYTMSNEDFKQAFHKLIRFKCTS
Chain of Interleukin-1 receptor-associated kinase 3 (Homo sapiens) (Q9Y616 whole entry): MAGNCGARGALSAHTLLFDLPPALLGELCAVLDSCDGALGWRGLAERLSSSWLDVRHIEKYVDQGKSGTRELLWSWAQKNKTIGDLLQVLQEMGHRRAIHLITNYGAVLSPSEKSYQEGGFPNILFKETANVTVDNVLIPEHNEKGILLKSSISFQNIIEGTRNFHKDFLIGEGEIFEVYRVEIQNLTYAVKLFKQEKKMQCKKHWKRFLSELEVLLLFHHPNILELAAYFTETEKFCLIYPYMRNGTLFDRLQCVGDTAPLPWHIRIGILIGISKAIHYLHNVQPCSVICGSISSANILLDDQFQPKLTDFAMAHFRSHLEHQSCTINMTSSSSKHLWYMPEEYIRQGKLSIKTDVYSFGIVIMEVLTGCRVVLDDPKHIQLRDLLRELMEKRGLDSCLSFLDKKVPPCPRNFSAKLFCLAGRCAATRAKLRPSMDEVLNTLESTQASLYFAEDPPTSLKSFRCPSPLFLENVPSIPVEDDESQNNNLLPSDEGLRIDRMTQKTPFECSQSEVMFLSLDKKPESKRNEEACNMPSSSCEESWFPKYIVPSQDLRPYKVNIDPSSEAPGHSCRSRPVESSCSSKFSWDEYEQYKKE
Chain of Serine/threonine-protein kinase tousled-like 1 (Homo sapiens) (Q9UKI8 whole entry, the tested form may be a part): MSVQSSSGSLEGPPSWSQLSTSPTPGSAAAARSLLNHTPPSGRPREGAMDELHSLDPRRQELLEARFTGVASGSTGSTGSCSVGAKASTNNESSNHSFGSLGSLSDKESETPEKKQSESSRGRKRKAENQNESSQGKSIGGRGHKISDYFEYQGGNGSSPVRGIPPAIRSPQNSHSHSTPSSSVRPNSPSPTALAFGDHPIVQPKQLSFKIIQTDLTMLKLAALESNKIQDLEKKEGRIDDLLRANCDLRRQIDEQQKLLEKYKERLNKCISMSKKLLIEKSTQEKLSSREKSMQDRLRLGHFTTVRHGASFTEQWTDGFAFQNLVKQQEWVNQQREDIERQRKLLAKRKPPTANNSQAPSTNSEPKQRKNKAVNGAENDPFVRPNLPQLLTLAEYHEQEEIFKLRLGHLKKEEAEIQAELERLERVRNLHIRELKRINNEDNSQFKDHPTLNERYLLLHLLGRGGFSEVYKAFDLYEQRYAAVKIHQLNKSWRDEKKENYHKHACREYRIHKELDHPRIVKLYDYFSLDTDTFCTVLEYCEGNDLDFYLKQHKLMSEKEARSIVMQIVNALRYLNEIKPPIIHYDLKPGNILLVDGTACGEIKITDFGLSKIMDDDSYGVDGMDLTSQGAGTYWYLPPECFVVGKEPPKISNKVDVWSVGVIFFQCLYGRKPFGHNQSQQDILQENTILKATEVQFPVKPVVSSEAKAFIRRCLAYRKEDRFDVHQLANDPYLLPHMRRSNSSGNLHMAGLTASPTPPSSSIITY
Chain of Serine/threonine-protein kinase RIO2 (Homo sapiens) (Q9BVS4 whole entry, looked up): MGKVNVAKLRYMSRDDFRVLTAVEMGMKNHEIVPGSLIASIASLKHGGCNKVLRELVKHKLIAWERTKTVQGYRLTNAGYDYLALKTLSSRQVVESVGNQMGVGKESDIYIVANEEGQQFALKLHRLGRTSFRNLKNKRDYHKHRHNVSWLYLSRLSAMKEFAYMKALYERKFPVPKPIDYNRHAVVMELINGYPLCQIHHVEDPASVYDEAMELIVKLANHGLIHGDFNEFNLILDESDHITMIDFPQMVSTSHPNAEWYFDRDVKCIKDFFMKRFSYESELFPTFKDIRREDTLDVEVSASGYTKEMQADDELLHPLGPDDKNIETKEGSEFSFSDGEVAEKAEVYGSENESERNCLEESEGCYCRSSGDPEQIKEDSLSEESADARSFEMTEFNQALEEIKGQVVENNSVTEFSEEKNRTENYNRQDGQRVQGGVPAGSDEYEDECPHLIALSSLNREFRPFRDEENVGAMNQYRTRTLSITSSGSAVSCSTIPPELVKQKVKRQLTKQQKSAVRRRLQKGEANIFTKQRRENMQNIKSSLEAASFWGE
Chain of Serine/threonine-protein kinase pim-1 (Homo sapiens) (P11309 whole entry, looked up): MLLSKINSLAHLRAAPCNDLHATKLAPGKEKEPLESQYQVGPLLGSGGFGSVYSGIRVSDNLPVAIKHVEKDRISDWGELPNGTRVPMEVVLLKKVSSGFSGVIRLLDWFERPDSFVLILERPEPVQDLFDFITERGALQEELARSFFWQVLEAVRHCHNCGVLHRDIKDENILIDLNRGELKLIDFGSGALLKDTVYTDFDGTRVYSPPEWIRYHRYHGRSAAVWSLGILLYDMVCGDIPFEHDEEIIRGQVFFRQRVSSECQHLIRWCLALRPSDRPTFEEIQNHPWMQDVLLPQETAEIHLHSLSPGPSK
Chain of Protein kinase C delta type (Homo sapiens) (Q05655 whole entry, looked up): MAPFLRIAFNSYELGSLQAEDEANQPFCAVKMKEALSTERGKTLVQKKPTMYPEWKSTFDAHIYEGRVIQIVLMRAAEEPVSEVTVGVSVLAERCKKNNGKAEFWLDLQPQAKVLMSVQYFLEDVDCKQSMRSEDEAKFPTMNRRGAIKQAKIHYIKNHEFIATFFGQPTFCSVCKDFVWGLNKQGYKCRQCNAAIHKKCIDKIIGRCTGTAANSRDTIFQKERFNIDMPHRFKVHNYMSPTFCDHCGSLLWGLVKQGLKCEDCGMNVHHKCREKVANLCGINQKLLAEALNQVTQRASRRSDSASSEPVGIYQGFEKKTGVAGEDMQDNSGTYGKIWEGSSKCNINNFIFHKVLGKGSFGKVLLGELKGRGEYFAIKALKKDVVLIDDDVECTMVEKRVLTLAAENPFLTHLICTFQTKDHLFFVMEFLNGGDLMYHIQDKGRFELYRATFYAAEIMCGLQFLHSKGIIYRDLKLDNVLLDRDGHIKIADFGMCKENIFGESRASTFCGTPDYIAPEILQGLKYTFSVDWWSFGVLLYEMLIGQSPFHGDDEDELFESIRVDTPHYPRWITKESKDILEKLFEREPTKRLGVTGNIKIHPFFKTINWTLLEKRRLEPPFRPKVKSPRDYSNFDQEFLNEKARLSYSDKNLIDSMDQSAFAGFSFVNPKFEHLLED
Chain of Serine/threonine-protein kinase SIK2 (Homo sapiens) (Q9H0K1 whole entry, looked up): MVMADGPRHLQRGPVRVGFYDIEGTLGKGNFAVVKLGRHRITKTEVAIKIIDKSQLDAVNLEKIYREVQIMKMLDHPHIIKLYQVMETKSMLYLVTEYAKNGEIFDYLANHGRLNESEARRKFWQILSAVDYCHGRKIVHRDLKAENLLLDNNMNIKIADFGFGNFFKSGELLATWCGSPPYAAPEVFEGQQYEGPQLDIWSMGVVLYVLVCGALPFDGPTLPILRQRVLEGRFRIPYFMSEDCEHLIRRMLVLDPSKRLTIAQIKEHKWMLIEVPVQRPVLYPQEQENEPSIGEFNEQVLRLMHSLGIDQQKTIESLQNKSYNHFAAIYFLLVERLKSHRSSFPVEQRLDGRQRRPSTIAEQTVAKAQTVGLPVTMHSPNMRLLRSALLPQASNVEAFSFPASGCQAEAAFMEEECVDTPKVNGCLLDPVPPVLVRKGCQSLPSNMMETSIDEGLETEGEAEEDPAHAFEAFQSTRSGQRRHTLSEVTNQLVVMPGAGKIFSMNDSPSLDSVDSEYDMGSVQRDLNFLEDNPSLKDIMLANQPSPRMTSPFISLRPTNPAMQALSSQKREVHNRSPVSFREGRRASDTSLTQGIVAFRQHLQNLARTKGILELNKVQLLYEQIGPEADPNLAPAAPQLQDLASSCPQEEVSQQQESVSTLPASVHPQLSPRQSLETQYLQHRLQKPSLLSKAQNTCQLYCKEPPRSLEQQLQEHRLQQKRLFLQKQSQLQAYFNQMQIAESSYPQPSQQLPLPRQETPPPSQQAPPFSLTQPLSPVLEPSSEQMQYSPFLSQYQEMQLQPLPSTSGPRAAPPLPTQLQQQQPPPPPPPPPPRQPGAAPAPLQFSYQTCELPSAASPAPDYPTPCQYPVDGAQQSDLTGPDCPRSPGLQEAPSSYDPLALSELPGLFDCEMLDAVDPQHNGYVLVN
Chain of Cyclin-dependent kinase-like 1 (Homo sapiens) (Q00532 whole entry): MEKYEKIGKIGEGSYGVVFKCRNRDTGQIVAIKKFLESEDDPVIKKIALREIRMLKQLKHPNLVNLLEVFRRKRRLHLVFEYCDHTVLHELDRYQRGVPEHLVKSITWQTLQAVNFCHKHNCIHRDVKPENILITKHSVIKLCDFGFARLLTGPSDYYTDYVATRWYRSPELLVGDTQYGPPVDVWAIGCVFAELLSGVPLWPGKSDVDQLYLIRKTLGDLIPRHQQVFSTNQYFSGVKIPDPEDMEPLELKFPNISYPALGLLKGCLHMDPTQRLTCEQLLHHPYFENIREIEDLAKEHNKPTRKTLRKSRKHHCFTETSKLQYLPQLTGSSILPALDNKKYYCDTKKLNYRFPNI

SMILES | residual activity [1] [%] | inhibition [2] [%] | inhibition [3] [%] | residual activity [4] [%] | residual activity [5] [%] | residual activity [6] [%] | residual activity [7] [%] | residual activity [8] [%] | inhibition [9] [%] | residual activity [10] [%] | residual activity [11] [%] | residual activity [12] [%] | residual activity [13] [%] | residual activity [14] [%] | residual activity [15] [%] | inhibition [16] [%] | residual activity [17] [%] | residual activity [18] [%] | residual activity [19] [%] | residual activity [20] [%] | other results
Cc1c[nH]c2nccc(Oc3c(F)cc(Nc4cc(Cl)nc(N)n4)cc3F)c12 [BAY-549] | 100 | 22 | -5.28 | 82 | 99 | 81 | 85 | 99 | 6.86 | 87 | 100 | 96 | 100 | 57 | 100 | 8.13 | 90 | 0.9 | 68 | 100 | residual activity [21]: 100%; residual activity [22]: 100%; residual activity [23]: 100%; residual activity [24]: 81%; residual activity [25]: 89%; residual activity [26]: 84%; residual activity [27]: 68%; residual activity [28]: 85%; residual activity [29]: 100%; residual activity [30]: 99%; residual activity [31]: 100%; residual activity [32]: 83%
Cn1cc(Cl)c2c(Oc3c(F)cc(Nc4cc(Cl)nc(N)n4)cc3F)ccnc21 [BAY-4900] | 61 | 3.48 | 5.3 | 84 | 100 | 83 | 97 | 100 | -2.51 | 90 | 100 | 100 | 100 | 89 | 100 | 31 | 98 | 83 | 76 | 100 | residual activity [21]: 100%; residual activity [22]: 100%; residual activity [23]: 100%; residual activity [24]: 100%; residual activity [25]: 100%; residual activity [26]: 97%; residual activity [27]: 70%; residual activity [28]: 100%; residual activity [29]: 96%; residual activity [30]: 100%; residual activity [31]: 97%; residual activity [32]: 98%

Reference: ChEMBL document CHEMBL4507274 (2021)
